Legend:
Erk1 = target: T1, Erk1 (Homo sapiens, UniProt P27361); test: Protein Mass Modification Assay (intact protein MALDI, 60 min, 10-fold excess of compound); type: binding
T1 construct: purchased Millipore 14-439
Procedure, shortened: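 Human Erk1 was incubated 60 min at room temperature with a 10-fold molar excess of compound, then analysed as intact protein by MALDI with sinapinic acid matrix. The centroid mass shift versus untreated protein was divided by compound molecular weight to give percent modified protein.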

MEK1 activated ERK1 = target: T2, MEK1 activated ERK1 (Homo sapiens, UniProt P27361); test: Omnia continuous-read kinase assay for potency against MEK1 activated ERK1; type: biochemical; conditions: ATP at KM, WT
T2 construct: purchased Millipore (Billerica, Mass.) 14-439-K
T2 sequence (P27361 whole entry): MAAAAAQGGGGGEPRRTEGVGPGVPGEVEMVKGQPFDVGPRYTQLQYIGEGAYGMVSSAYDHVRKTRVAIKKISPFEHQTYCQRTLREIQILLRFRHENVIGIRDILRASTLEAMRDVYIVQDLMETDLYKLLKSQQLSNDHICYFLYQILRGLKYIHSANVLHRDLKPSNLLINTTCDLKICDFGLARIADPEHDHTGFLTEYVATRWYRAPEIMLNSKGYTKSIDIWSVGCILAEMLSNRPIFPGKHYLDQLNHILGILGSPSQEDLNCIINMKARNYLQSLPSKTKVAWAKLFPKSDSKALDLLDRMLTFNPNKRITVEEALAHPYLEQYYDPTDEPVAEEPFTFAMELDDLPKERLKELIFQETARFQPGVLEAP
Procedure, shortened: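 Apparent IC50 came from initial reaction slopes (RFU vs time) plotted against log inhibitor with a variable-slope fit. Reactions were started with ERK1 (4 nM final) added to 50 μM ATP, roughly at its appKM, and 10 μM Sox-conjugated ST17 peptide in 20 mM Tris pH 7.5, 5 mM MgCl2. Fluorescence was monitored every 71 seconds.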

[1] = system: ERK1/2 phosphorylation of p90RSK in A375 cells; test: Detection of total and phosphor-RSK by MSD ELISA (A375); type: cell-based; conditions: Homo sapiens, A-375, read-out: ERK1/ERK2 PRSK A375 EC50
Procedure, shortened: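 A375 cells serum-starved overnight in DMEM/0.1% FBS, then treated 2 h at 37° C with compound (1000× DMSO dilutions into medium). Lysates captured on RSK antibody-coated MSD plates; phospho-RSK (Ser380) and total RSK detected with SulfoTag secondary antibodies by electrochemiluminescence.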

T1 sequence (P27361 whole entry): as above

Compound	ERK1 Mass Mod (%) (Erk1)	IC50 (MEK1 activated ERK1) [nM]	EC50 [1] [nM]
C=CC(=O)Nc1cc(CN2CCN(C(C)=O)CC2)ccc1Nc1nc(Nc2cc(OC)ncc2C)ncc1C(F)(F)F [Compound I-381, N-(5-((4-acetylpiperazin-1-yl)methyl)-2-((2-((2-methoxy-5-methylpyridin-4-yl)amino)-5-(trifluoromethyl)pyrimidin-4-yl)amino)phenyl)acrylamide]	E (a mass modification of ≧70%)	< 100	< 100
C=CC(=O)Nc1cc(CN2CCN(C(C)=O)CC2)ccc1Nc1nc(Nc2nc(OC)ncc2C)ncc1C(F)(F)F [Compound I-382, N-(5-((4-acetylpiperazin-1-yl)methyl)-2-((2-((2-methoxy-5-methylpyrimidin-4-yl)amino)-5-(trifluoromethyl)pyrimidin-4-yl)amino)phenyl)acrylamide]	E (a mass modification of ≧70%)	101 to 500	> 1000
C=CC(=O)Nc1cc(CN2CCN(C(=O)CO)CC2)ccc1Nc1nc(Nc2cc(OC)ncc2C)ncc1C(F)(F)F [Compound I-385, N-(5-((4-(2-hydroxyacetyl)piperazin-1-yl)methyl)-2-((2-((2-methoxy-5-methylpyridin-4-yl)amino)-5-(trifluoromethyl)pyrimidin-4-yl)amino)phenyl)acrylamide]	E (a mass modification of ≧70%)	< 100	< 100
C=CC(=O)Nc1cc(OCC(N)=O)ccc1Nc1nc(NC2CCOCC2)ncc1C(F)(F)F [Compound I-387, N-(5-(2-amino-2-oxoethoxy)-2-((2-((tetrahydro-2H-pyran-4-yl)amino)-5-(trifluoromethyl)pyrimidin-4-yl)amino)phenyl)acrylamide]	E (a mass modification of ≧70%)	101 to 500	101 to 500

Results, then the compound that gave them:

ERK1 Mass Mod (%) (Erk1)	IC50 (MEK1 activated ERK1) [nM]	EC50 [1] [nM]	Compound
E (a mass modification of ≧70%)	501 to 999	501 to 999	C=CC(=O)Nc1cc(C)ccc1Nc1nc(Nc2cc(-c3c[nH]cn3)ccc2C)ncc1C(F)(F)F [Compound I-378, N-(2-((2-((5-(1H-imidazol-4-yl)-2-methylphenyl)amino)-5-(trifluoromethyl)pyrimidin-4-yl)amino)-5-methylphenyl)acrylamide]
E (a mass modification of ≧70%)	101 to 500	< 100	C=CC(=O)Nc1cc(C)ccc1Nc1nc(Nc2ccnc3ccccc23)ncc1C(F)(F)F [Compound I-379, N-(5-methyl-2-((2-(quinolin-4-ylamino)-5-(trifluoromethyl)pyrimidin-4-yl)amino)phenyl)acrylamide]
E (a mass modification of ≧70%)	101 to 500	> 1000	C=CC(=O)Nc1cc(CN2CCN(S(C)(=O)=O)CC2)ccc1Nc1nc(Nc2nc(OC)ncc2C)ncc1C(F)(F)F [Compound I-383, N-(2-((2-((2-methoxy-5-methylpyrimidin-4-yl)amino)-5-(trifluoromethyl)pyrimidin-4-yl)amino)-5-((4-(methylsulfonyl)piperazin-1-yl)methyl)phenyl)acrylamide]
E (a mass modification of ≧70%)	< 100	< 100	C=CC(=O)Nc1cc(CN2CCN(S(C)(=O)=O)CC2)ccc1Nc1nc(Nc2cc(OC)ncc2C)ncc1C(F)(F)F [Compound I-384, N-(2-((2-((2-methoxy-5-methylpyridin-4-yl)amino)-5-(trifluoromethyl)pyrimidin-4-yl)amino)-5-((4-(methylsulfonyl)piperazin-1-yl)methyl)phenyl)acrylamide]
E (a mass modification of ≧70%)	501 to 999	> 1000	C=CC(=O)Nc1cc(CN2CCN(C(=O)CO)CC2)ccc1Nc1nc(Nc2nc(OC)ncc2C)ncc1C(F)(F)F [Compound I-386, N-(5-((4-(2-hydroxyacetyl)piperazin-1-yl)methyl)-2-((2-((2-methoxy-5-methylpyrimidin-4-yl)amino)-5-(trifluoromethyl)pyrimidin-4-yl)amino)phenyl)acrylamide]

Source: patent US9561228B2 (Celgene Avilomics Research, Inc., priority 2013, dated 2017)
